Where a SMILES comes first, the peptide text is derived from it. Bridges are numbered along the chain shown (N, C = ends). [ ]: non-standard residue; d: D form. hPhe(3,5-F2-4-CF3) = N[C@@H](CCc1cc(F)c(C(F)(F)F)c(F)c1)C(=O)O; NPrPhe(4-CF3) = CCCN[C@@H](Cc1ccc(C(F)(F)F)cc1)C(=O)O; NMeGly(cPent) = CN[C@H](C(=O)O)C1CCCC1; NMeD = CN[C@@H](CC(=O)O)C(=O)O; NMeL = CN[C@@H](CC(C)C)C(=O)O; αMeL = CC(C)C[C@](C)(N)C(=O)O; Sar = CNCC(=O)O
Experiments:
[1] = target: GDP-bound NRAS wild-type protein (Homo sapiens, UniProt P01111); test: Binding to NRAS by surface plasmon resonance (SPR), Single Cycle Kinetics; conditions: for NRAS/KRAS (ratio of KD value for NRAS to KD value for KRAS) / NRAS/KRAS (ratio of KD value with respect to NRAS to KD value with respect to KRAS): GDP-bound NRAS wild-type vs GDP-bound KRAS wild-type
GDP-bound NRAS wild-type protein, sequence (P01111 whole entry): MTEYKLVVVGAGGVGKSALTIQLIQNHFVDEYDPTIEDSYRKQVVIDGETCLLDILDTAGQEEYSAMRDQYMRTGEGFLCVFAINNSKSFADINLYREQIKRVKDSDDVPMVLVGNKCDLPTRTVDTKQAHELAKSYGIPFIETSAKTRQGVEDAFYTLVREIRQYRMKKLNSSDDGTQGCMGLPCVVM

[2] = target: GDP-bound HRAS wild-type protein (Homo sapiens, UniProt P01112); test: Binding to HRAS by surface plasmon resonance (SPR), Single Cycle Kinetics; conditions: for HRAS/KRAS (ratio of KD value for HRAS to KD value for KRAS) / HRAS/KRAS (ratio of KD value with respect to HRAS to KD value with respect to KRAS): GDP-bound HRAS wild-type vs GDP-bound KRAS wild-type
GDP-bound HRAS wild-type protein, sequence (P01112 whole entry): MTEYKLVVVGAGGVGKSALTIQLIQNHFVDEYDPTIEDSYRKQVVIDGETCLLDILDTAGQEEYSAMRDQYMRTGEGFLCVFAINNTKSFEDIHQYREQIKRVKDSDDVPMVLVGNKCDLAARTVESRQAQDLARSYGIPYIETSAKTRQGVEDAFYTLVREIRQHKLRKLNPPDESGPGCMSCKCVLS

[3] = SPR, GDP-bound wild-type proteins

CCCN(C)C(=O)[C@@H]1CC(=O)N(C)[C@@H](CC(F)F)C(=O)N[C@@H]([C@@H](C)CC)C(=O)N(C)CC(=O)N(C)[C@H]2C/C=C\CCN(C2=O)[C@@H](Cc2ccc(C(F)(F)F)cc2)C(=O)N(C)CC(=O)N[C@@H](CCc2cc(F)c(C(F)(F)F)c(F)c2)C(=O)N2CCC[C@H]2C(=O)NC2(CC(C)(C)C2)C(=O)N(C)[C@@H](C2CCCC2)C(=O)N1C [PP1721]
NRAS/KRAS (ratio of KD value for NRAS to KD value for KRAS) ([1]; SPR): A (a compound having 10 or more and less than 20 is denoted as A)
HRAS/KRAS (ratio of KD value for HRAS to KD value for KRAS) ([2]; SPR): A (a compound having 10 or more and less than 20 is denoted as A)

CCCN1C(=O)CN(C)C(=O)CN(C)C(=O)[C@H]([C@@H](C)CC)NC(=O)[C@H](CC(C)C)N(C)C(=O)C[C@@H](C(=O)N(C)C)N(C)C(=O)[C@H](C2CCCC2)N(C)C(=O)[C@](C)(CC(C)C)NC(=O)[C@@H]2CCCN2C(=O)[C@H](CCc2cc(F)c(C(F)(F)F)c(F)c2)NC(=O)CN(C)C(=O)[C@@H]1Cc1ccc(C(F)(F)F)cc1 [PP0738] ([NMeL]I[Sar][Sar][NPrPhe(4-CF3)][Sar][hPhe(3,5-F2-4-CF3)]P[αMeL][NMeGly(cPent)][NMeD]-NMe2; lactam N-11)
NRAS/KRAS (ratio of KD value with respect to GDP-bound NRAS wild-type protein to KD value with respect to KRAS) ([1]; SPR): B (a compound having 3 or more and less than 10 is denoted as B)
HRAS/KRAS (ratio of KD value with respect to GDP-bound HRAS wild-type protein to KD value with respect to KRAS) ([2]; SPR): B (a compound having 3 or more and less than 10 is denoted as B)

CCC[C@H]1C(=O)N[C@@H]([C@@H](C)CC)C(=O)N(C2CC2)CC(=O)N(C)[C@H]2C/C=C\CCN(C2=O)[C@@H](Cc2ccc(C(F)(F)F)cc2)C(=O)N(C)CC(=O)N[C@@H](CCc2ccc(C(F)(F)F)c(OC)c2)C(=O)N2C[C@H](OCC)C[C@H]2C(=O)N(C)C2(CCC2)C(=O)N(C)[C@@H](C2CCCC2)C(=O)N(C)[C@H](C(=O)N2CCCC2)CC(=O)N1C [PP3097]
NRAS/KRAS (ratio of KD value with respect to GDP-bound NRAS wild-type protein to KD value with respect to KRAS) [1, 3]: A (a compound having 10 or more and less than 20 is denoted as A)
HRAS/KRAS (ratio of KD value with respect to GDP-bound HRAS wild-type protein to KD value with respect to KRAS) [2, 3]: A (a compound having 10 or more and less than 20 is denoted as A)

CCC[C@H]1C(=O)N[C@@H]([C@H](C)CC)C(=O)N(C)CC(=O)N(C)[C@H]2C/C=C\CCN(C2=O)[C@@H](Cc2ccc(C)cc2)C(=O)N(C)CC(=O)N[C@@H](CCc2ccc(C(F)(F)F)c(Cl)c2)C(=O)N2C[C@H](OCC)C[C@H]2C(=O)NC2(CC(C)(C)C2)C(=O)N(C)[C@@H](CC(C)(C)C)C(=O)N(C)[C@H](C(=O)N(C)C)CC(=O)N1C [PP2219]
NRAS/KRAS (ratio of KD value with respect to NRAS to KD value with respect to KRAS) ([1]; SPR): A (a compound having 10 or more and less than 20 is denoted as A)
HRAS/KRAS (ratio of KD value with respect to HRAS to KD value with respect to KRAS) ([2]; SPR): A (a compound having 10 or more and less than 20 is denoted as A)

CCC[C@H]1C(=O)N[C@@H]([C@@H](C)CC)C(=O)N(C)CC(=O)N(C)[C@H]2C/C=C\CCN(C2=O)[C@@H](Cc2ccc(C)cc2)C(=O)N(C)CC(=O)N[C@@H](CCc2ccc3sc(C)c(C)c3c2)C(=O)N2C[C@H](OCC)C[C@H]2C(=O)NC2(CC(C)(C)C2)C(=O)N(C)[C@@H](C2CCCC2)C(=O)N(C)[C@H](C(=O)N(C)C)CC(=O)N1C [PP2891]
NRAS/KRAS (ratio of KD value with respect to GDP-bound NRAS wild-type protein to KD value with respect to KRAS) ([1]; class symbols): A (a compound having 10 or more and less than 20 is denoted as A)
HRAS/KRAS (ratio of KD value with respect to GDP-bound HRAS wild-type protein to KD value with respect to KRAS) ([2]; class symbols): B (a compound having 3 or more and less than 10 is denoted as B)

CCO[C@@H]1C[C@H]2C(=O)NC3(CC(C)(C)C3)C(=O)N(C)[C@@H](C3CCCC3)C(=O)N(C)[C@H](C(=O)N3CCCCC3)CC(=O)N(C)[C@@H](CC)C(=O)N[C@@H]([C@@H](C)CC)C(=O)N(C)CC(=O)N(C)[C@H]3C/C=C\CCN(C3=O)[C@@H](Cc3ccc(C(F)(F)F)cc3)C(=O)N(C)CC(=O)N[C@@H](CCc3cc(F)c(C(F)(F)F)c(F)c3)C(=O)N2C1 [PP1945]
NRAS/KRAS (ratio of KD value for NRAS to KD value for KRAS) ([1]; SPR): AA (a compound having 20 or more is denoted as AA)
HRAS/KRAS (ratio of KD value for HRAS to KD value for KRAS) ([2]; SPR): A (a compound having 10 or more and less than 20 is denoted as A)

CCO[C@@H]1C[C@H]2C(=O)NC3(CC(C)(C)C3)C(=O)N(C)[C@@H](C(CC)CC)C(=O)N(C)[C@H](C(=O)N(C)C)CC(=O)N(C)[C@@H](CC3CCC3)C(=O)N[C@@H]([C@@H](C)CC)C(=O)N(C)CC(=O)N(C)[C@H]3C/C=C\CCN(C3=O)[C@@H](Cc3ccc(C(F)(F)F)cc3)C(=O)N(C)CC(=O)N[C@@H](CCc3ccc(Cl)c(Cl)c3)C(=O)N2C1 [PP2180]
NRAS/KRAS (ratio of KD value with respect to NRAS to KD value with respect to KRAS) ([1]; SPR): AA (a compound having 20 or more is denoted as AA)
HRAS/KRAS (ratio of KD value with respect to HRAS to KD value with respect to KRAS) ([2]; SPR): A (a compound having 10 or more and less than 20 is denoted as A)

— patent publication US20250230193A1, “CYCLIC COMPOUND HAVING SELECTIVE KRAS INHIBITORY EFFECT ON HRAS AND NRAS” (CHUGAI SEIYAKU KABUSHIKI KAISHA, priority 2022, published 2025)
